The text below walks through data of patent US10597375B2, “Halogen-substituted heterocyclic compound” (UBE INDUSTRIES, LTD., priority 2012, dated 2020).

This experiment concerns A2058 human melanoma cells. The experiment is described as follows: Cell migration test (LPA-induced, Chemo-Tx). The class given is cell-based. The following applies: LPA 100 nM, 3 hours, read-out: IC50: concentration of the test compound which inhibits the cell migration activity of LPA by 50%. On the procedure:
The cell migration test was carried out using Chemo-Tx (registered trademark) (116-8, Neuro Probe). A2058 human melanoma cells (obtained from European Collection of Cell Culture) were cultured in a serum-free EMEM medium for 24 hours, and then re-suspended in a 0.1% BSA-containing DMEM medium to obtain a cell suspension. The test compound dissolved in DMSO in various concentration was each added to the cell suspension, and the suspension was cultured at 37° C. for 15 minutes (the final DMSO concentration of 0.5%). LPA dissolved in a 0.1% BSA-containing DMEM medium (the final concentration of 100 nM) was added to Chemo-Tx 96 well plate, and a Chemo-Tx filter which had been coated with 0.001% Fibronectin on the both surfaces was put on the plate. The suspension of cultured cells (25,000 cells) was added onto the upper surface of the filter and further cultured at 37° C. for 3 hours, and the cells on the upper surface of the filter were removed. After the filter was removed and dried, the cells which had migrated to the lower surface of the filter were stained using Diff-Quik stain (16920, Sysmex). The absorbance of the filter (570 nm) was measured and the concentration of the test compound which inhibits the cell migration activity of LPA by 50%, (1050) was determined by non-linear regression analysis using EXSAS (version 7.6.0, Arm Systex).
On to `CC(OC(=O)Nc1cc(F)sc1-c1ccc(-c2ccc(C3(C(=O)O)CC3)cc2)cc1)c1cc(F)c(F)cc1F` (racemic) [I-171, (RS)-1-{4′-[5-Fluoro-3-({[1-(2,4,5-trifluorophenyl)ethoxy]carbonyl}amino)thiophen-2-yl]-[1,1′-biphenyl]-4-yl}cyclopropanecarboxylic acid], for which the IC50 was at most 200 nM. With `COc1cc(-c2sc(F)cc2NC(=O)OC(C)c2cc(F)ccc2Cl)ccc1-c1ccc(C2(C(=O)O)CC2)cc1` (racemic) [I-469, (RS)-1-{4′-[3-({[1-(2-Chloro-5-fluorophenyl)ethoxy]carbonyl}amino)-5-fluorothiophen-2-yl]-2′-methoxy-[1,1′-biphenyl]-4-yl}cyclopropanecarboxylic acid] the figure was at most 200 nM. To `COc1cc(-c2sc(F)cc2NC(=O)OC(C)c2ccc(F)cc2C)ccc1-c1ccc(C2(C(=O)O)CC2)cc1` (racemic) [I-477, (RS)-1-{4′-[5-Fluoro-3-({[1-(4-fluoro-2-methylphenyl)ethoxy]carbonyl}amino)thiophen-2-yl]-2′-methoxy-[1,1′-biphenyl]-4-yl}cyclopropanecarboxylic acid] belongs at most 200 nM; to `COc1cc(-c2sc(F)cc2NC(=O)OC(C)c2cc(F)ccc2C)ccc1-c1ccc(C2(C(=O)O)CC2)cc1` (racemic) [I-481, (RS)-1-{4′-[5-Fluoro-3-({[1-(5-fluoro-2-methylphenyl)ethoxy]carbonyl}amino)thiophen-2-yl]-2′-methoxy-[1,1′-biphenyl]-4-yl}cyclopropanecarboxylic acid], at most 200 nM. With `CC(OC(=O)Nc1cc(Cl)sc1-c1ccc(-c2ccc(C3(C(=O)O)CC3)cc2)cc1)c1ccsc1` (racemic) [I-595, (RS)-1-{4′-[5-Chloro-3-({[1-(thiophen-3-yl)ethoxy]carbonyl}amino)thiophen-2-yl]-[1,1′-biphenyl]-4-yl}cyclopropanecarboxylic acid] the figure was at most 200 nM; with `Cc1cscc1C(C)OC(=O)Nc1cc(Cl)sc1-c1ccc(-c2ccc(C3(C(=O)O)CC3)cc2)cc1` (racemic) [I-605, (RS)-1-{4′-[5-Chloro-3-({[1-(4-methylthiophen-3-yl)ethoxy]carbonyl}amino)thiophen-2-yl]-[1,1′-biphenyl]-4-yl}cyclopropanecarboxylic acid], at most 200 nM. Consider `CC(OC(=O)Nc1cc(Cl)sc1-c1ccc(-c2ccc(C3(C(=O)O)CC3)cc2)cc1)c1ccsn1` (racemic) [I-621], for which the IC50 was at most 200 nM. Take `CC(OC(=O)Nc1cc(Cl)sc1-c1ccc(-c2ccc(C3(C(=O)O)CC3)cc2)cc1)c1cnsc1` (racemic) [I-625, (RS)-1-{4′-[5-Chloro-3-({[1-(isothiazol-4-yl)ethoxy]carbonyl}amino)thiophen-2-yl]-[1,1′-biphenyl]-4-yl}cyclopropanecarboxylic acid]: the IC50 is at most 200 nM.

For the compound `COc1cc(-c2sc(Cl)cc2NC(=O)OC(C)c2ccsc2)ccc1-c1ccc(C2(C(=O)O)CC2)cc1` (racemic) [I-779, (RS)-1-{4′-[5-Chloro-3-({[1-(thiophen-3-yl)ethoxy]carbonyl}amino)thiophen-2-yl]-2′-methoxy-[1,1′-biphenyl]-4-yl}cyclopropanecarboxylic acid], the IC50 is at most 200 nM.

As to `COc1cc(-c2sc(Cl)cc2NC(=O)OC(C)c2cscc2C)ccc1-c1ccc(C2(C(=O)O)CC2)cc1` (racemic) [I-783, (RS)-1-{4′-[5-Chloro-3-({[1-(4-methylthiophen-3-yl)ethoxy]carbonyl}amino)thiophen-2-yl]-2′-methoxy-[1,1′-biphenyl]-4-yl}cyclopropanecarboxylic acid], the IC50 is at most 200 nM. With `COc1cc(-c2sc(Cl)cc2NC(=O)OC(C)c2cscc2Cl)ccc1-c1ccc(C2(C(=O)O)CC2)cc1` (racemic) [I-791, (RS)-1-{4′-[5-Chloro-3-({[1-(4-chlorothiophen-3-yl)ethoxy]carbonyl}amino)thiophen-2-yl]-2′-methoxy-[1,1′-biphenyl]-4-yl}cyclopropanecarboxylic acid] the figure was at most 200 nM. To `COc1cc(-c2sc(F)cc2NC(=O)OC(C)c2cscc2C)ccc1-c1ccc(C2(C(=O)O)CC2)cc1` (racemic) [I-815, (RS)-1-{4′-[5-Fluoro-3-({[1-(4-methylthiophen-3-yl)ethoxy]carbonyl}amino)thiophen-2-yl]-2′-methoxy-[1,1′-biphenyl]-4-yl}cyclopropanecarboxylic acid] belongs at most 200 nM; to `COc1cc(-c2sc(F)cc2NC(=O)OC(C)c2cscc2Cl)ccc1-c1ccc(C2(C(=O)O)CC2)cc1` (racemic) [I-823, (RS)-1-{4′-[3-({[1-(4-Chlorothiophen-3-yl)ethoxy]carbonyl}amino)-5-fluorothiophen-2-yl]-2′-methoxy-[1,1′-biphenyl]-4-yl}cyclopropanecarboxylic acid], at most 200 nM. To `C[C@@H](OC(=O)Nc1cc(Cl)sc1-c1ccc(-c2ccc(C3(C(=O)O)CC3)cc2)cc1)c1ccc(F)c(F)c1` [I-72, (R)-1-{4′-[5-Chloro-3-({[1-(3,4-difluorophenyl)ethoxy]carbonyl}amino)thiophen-2-yl]-[1,1′-biphenyl]-4-yl}cyclopropanecarboxylic acid] belongs at most 200 nM.

As for `C[C@@H](OC(=O)Nc1cc(F)sc1-c1ccc(-c2ccc(C3(C(=O)O)CC3)cc2)cc1)c1ccc(F)c(F)c1` [I-148, (R)-1-{4′-[3-({[1-(3,4-Difluorophenyl)ethoxy]carbonyl}amino)-5-fluorothiophen-2-yl]-[1,1′-biphenyl]-4-yl}cyclopropanecarboxylic acid], the IC50 is at most 200 nM. With `COc1cc(-c2sc(Cl)cc2NC(=O)O[C@H](C)c2ccc(F)cc2Cl)ccc1-c1ccc(C2(C(=O)O)CC2)cc1` [I-396, (R)-1-{4′-[5-Chloro-3-({[1-(2-chloro-4-fluorophenyl)ethoxy]carbonyl}amino)thiophen-2-yl]-2′-methoxy-[1,1′-biphenyl]-4-yl}cyclopropanecarboxylic acid], the IC50 is at most 200 nM. `COc1cc(-c2sc(F)cc2NC(=O)O[C@H](C)c2ccc(Cl)cc2)ccc1-c1ccc(C2(C(=O)O)CC2)cc1` [I-446, (R)-1-{4′-[3-({[1-(4-Chlorophenyl)ethoxy]carbonyl}amino)-5-fluorothiophen-2-yl]-2′-methoxy-[1,1′-biphenyl]-4-yl}cyclopropanecarboxylic acid]: the IC50 is at most 200 nM. To `COc1cc(-c2sc(F)cc2NC(=O)O[C@H](C)c2ccc(F)cc2F)ccc1-c1ccc(C2(C(=O)O)CC2)cc1` [I-454, (R)-1-{4′-[3-({[1-(2,4-Difluorophenyl)ethoxy]carbonyl}amino)-5-fluorothiophen-2-yl]-2′-methoxy-[1,1′-biphenyl]-4-yl}cyclopropanecarboxylic acid] belongs at most 200 nM; to `COc1cc(-c2sc(F)cc2NC(=O)O[C@H](C)c2ccc(F)cc2Cl)ccc1-c1ccc(C2(C(=O)O)CC2)cc1` [I-466, (R)-1-{4′-[3-({[1-(2-Chloro-4-fluorophenyl)ethoxy]carbonyl}amino)-5-fluorothiophen-2-yl]-2′-methoxy-[1,1′-biphenyl]-4-yl}cyclopropanecarboxylic acid], at most 200 nM. With `C[C@@H](OC(=O)Nc1cc(Cl)sc1-c1ccc(-c2ccc(C3(C(=O)O)CC3)cc2)c([N+](=O)[O-])c1)c1ccccc1` [I-490, (R)-1-[4′-(5-Chloro-3-{[(1-phenylethoxy)carbonyl]amino}thiophen-2-yl)-2′-nitro-[1,1′-biphenyl]-4-yl]cyclopropanecarboxylic acid] the figure was at most 200 nM; with `C[C@@H](OC(=O)Nc1cc(Cl)sc1-c1ccc(-c2ccc(C3(C(=O)O)CC3)cc2)c([N+](=O)[O-])c1)c1ccc(F)cc1` [I-498, (R)-1-{4′-[5-Chloro-3-({[1-(4-fluorophenyl)ethoxy]carbonyl}amino)thiophen-2-yl]-2′-nitro-[1,1′-biphenyl]-4-yl}cyclopropanecarboxylic acid], at most 200 nM; with `C[C@@H](OC(=O)Nc1cc(Cl)sc1-c1ccc(-c2ccc(C3(C(=O)O)CC3)cc2)c([N+](=O)[O-])c1)c1ccccc1Cl` [I-502, (R)-1-{4′-[5-Chloro-3-({[1-(2-chlorophenyl)ethoxy]carbonyl}amino)thiophen-2-yl]-2′-nitro-[1,1′-biphenyl]-4-yl}cyclopropanecarboxylic acid], at most 200 nM. As to `C[C@@H](OC(=O)Nc1cc(Cl)sc1-c1ccc(-c2ccc(C3(C(=O)O)CC3)cc2)c(N)c1)c1ccccc1` [I-534], the IC50 is at most 200 nM. To `C[C@@H](OC(=O)Nc1cc(Cl)sc1-c1ccc(-c2ccc(C3(C(=O)O)CC3)cc2)cc1)c1cccs1` [I-630, (R)-1-{4′-[5-Chloro-3-({[1-(thiophen-2-yl)ethoxy]carbonyl}amino)thiophen-2-yl]-[1,1′-biphenyl]-4-yl}cyclopropanecarboxylic acid] belongs at most 200 nM; to `C[C@@H](OC(=O)Nc1cc(F)sc1-c1ccc(-c2ccc(C3(C(=O)O)CC3)cc2)cc1)c1cccs1` [I-674, (R)-1-{4′-[5-Fluoro-3-({[1-(thiophen-2-yl)ethoxy]carbonyl}amino)thiophen-2-yl]-[1,1′-biphenyl]-4-yl}cyclopropanecarboxylic acid], at most 200 nM.
